From ChEMBL document CHEMBL5055652 (Bioorg Med Chem, 2021)
Calls of active or inactive are those of the source. The rule behind the calls is not given here.

Key:
Format in all cases: cell-based
[1] = molecular target: T1, Progesterone receptor (Homo sapiens) (UniProt P06401); experiment: Agonist activity at PR in human T47D cells using p-nitrophenyl phosphate as substrate assessed as induction of alkaline phosphatase activity at 1 nM incubated for 72 hrs followed by substrate addition measured after 24 hrs by alkaline phosphatase assay relative to control; conditions: filed as agonist, time 96.0 hrs
T1 sequence (whole entry): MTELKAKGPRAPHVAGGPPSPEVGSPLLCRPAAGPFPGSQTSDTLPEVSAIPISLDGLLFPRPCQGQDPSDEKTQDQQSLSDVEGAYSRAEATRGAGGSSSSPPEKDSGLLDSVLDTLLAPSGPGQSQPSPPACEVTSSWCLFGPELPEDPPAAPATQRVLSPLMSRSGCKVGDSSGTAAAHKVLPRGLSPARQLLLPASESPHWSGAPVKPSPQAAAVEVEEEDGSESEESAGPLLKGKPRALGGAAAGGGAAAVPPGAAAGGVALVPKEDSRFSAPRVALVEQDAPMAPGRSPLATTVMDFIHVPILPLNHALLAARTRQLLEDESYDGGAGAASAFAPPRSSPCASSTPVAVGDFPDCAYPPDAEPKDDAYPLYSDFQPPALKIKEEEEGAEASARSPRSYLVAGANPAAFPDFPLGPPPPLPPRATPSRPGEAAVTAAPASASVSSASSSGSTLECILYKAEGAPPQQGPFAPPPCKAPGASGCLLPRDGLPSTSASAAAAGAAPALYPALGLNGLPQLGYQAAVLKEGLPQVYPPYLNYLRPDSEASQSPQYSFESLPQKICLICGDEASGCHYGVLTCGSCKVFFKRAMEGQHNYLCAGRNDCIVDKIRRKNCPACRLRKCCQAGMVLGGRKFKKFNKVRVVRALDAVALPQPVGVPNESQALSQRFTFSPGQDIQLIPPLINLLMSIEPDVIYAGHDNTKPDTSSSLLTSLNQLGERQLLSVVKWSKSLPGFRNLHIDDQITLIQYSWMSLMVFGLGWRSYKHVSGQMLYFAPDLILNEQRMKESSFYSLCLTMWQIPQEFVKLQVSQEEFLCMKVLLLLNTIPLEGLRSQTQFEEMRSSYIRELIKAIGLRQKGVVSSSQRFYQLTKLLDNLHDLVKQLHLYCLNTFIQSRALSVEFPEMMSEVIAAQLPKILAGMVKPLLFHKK

[2] = molecular target: T2, Progesterone receptor (Homo sapiens, UniProt P06401); experiment: Agonist activity at PR in human T47D cells using p-nitrophenyl phosphate as substrate assessed as induction of alkaline phosphatase activity incubated for 72 hrs followed by substrate addition measured after 24 hrs by alkaline phosphatase assay
T2 sequence (P06401 whole entry): T1 sequence (whole entry)

[3] = molecular target: T1, Progesterone receptor (Homo sapiens); experiment: Agonist activity at PR in human T47D cells using p-nitrophenyl phosphate as substrate assessed as induction of alkaline phosphatase activity at 125 nM incubated for 72 hrs followed by substrate addition measured after 24 hrs by alkaline phosphatase assay; conditions: time 96.0 hrs
[4] = molecular target: T1, Progesterone receptor (Homo sapiens); experiment: Agonist activity at PR in human T47D cells using p-nitrophenyl phosphate as substrate assessed as fold increase in alkaline phosphatase activity at 25 nM incubated for 72 hrs followed by substrate addition measured after 24 hrs by alkaline phosphatase assay relative to control; conditions: filed as agonist, time 96.0 hrs

| SMILES | Activity [1] | EC50 [2] | Activity [3] | fold change (FC) [4] |
| --- | --- | --- | --- | --- |
| CC(=O)O[C@@]1(C(C)=O)CC[C@H]2[C@@H]3CCC4=CC(=O)CC[C@@H]4[C@H]3[C@@H](C)C[C@@]21C | 89.3% | > 125 nM | inactive |  |
| CC(=O)O[C@]1(C(C)=O)CC[C@H]2[C@@H]3CCC4=CC(=O)CC[C@@H]4[C@H]3[C@@H](C)C[C@@]21C [NORGESTOMET] | 106% | 4.5 nM |  | 2 |
| CC(=O)[C@H]1CC[C@H]2[C@@H]3CCC4=CC(=O)CC[C@]4(C)[C@H]3CC[C@]12C | 158% |  |  |  |
